# Where two headings read alike, the source gives them in different places.
# Tests used:
# AKT1 kinase activity = target: AKT1 kinase activity; set-up: method as in ref 4 = [4]; 4. Lu W, Defeo-Jones D, Davis L et al (2009) In vitro and in vivo antitumor activities of MK-2206, a new allosteric Akt inhibitor [abstract #3714]. In: Proceedings of the 100th annual meeting of the A; conditions: several cancer cell lines; cited from earlier work
# [1] = tested on: in vivo preclinical models; set-up: method as in PMID 20571069; conditions: single agent; cited from earlier work
# AKT pathway = tested on: AKT pathway; set-up: method as in PMID 25239610; conditions: continuous QOD and intermittent QW dosing, serially obtained tumor and platelet-rich plasma; cited from earlier work
# AKT3 [2] = tested on: AKT3; set-up: method as in ref 4 = [4]; 4. Lu W, Defeo-Jones D, Davis L et al (2009) In vitro and in vivo antitumor activities of MK-2206, a new allosteric Akt inhibitor [abstract #3714]. In: Proceedings of the 100th annual meeting of the A; conditions: several cancer cell lines; cited from earlier work
# AKT3 [3] = tested on: AKT3; set-up: method as in ref 3 = [3]; 3. Yan L (2009) MK-2206: a potent oral allosteric AKT inhibitor [abstract #DDT01-1]. In: Proceedings of the 100th annual meeting of the American association for cancer research, Denver, CO, 18–22 Apr; conditions: purified recombinant AKT3, in vitro; cited from earlier work
# AKT2 [4] = tested on: AKT2; set-up: method as in ref 3 = [3]; 3. Yan L (2009) MK-2206: a potent oral allosteric AKT inhibitor [abstract #DDT01-1]. In: Proceedings of the 100th annual meeting of the American association for cancer research, Denver, CO, 18–22 Apr; conditions: purified recombinant AKT2, in vitro; cited from earlier work
# advanced solid tumors = experiment: tumor response according to RECIST version 1.0 in Japanese patients; format: in vivo, human
# Procedure: The anti-tumor activity was evaluated at baseline and every 6 weeks according to the Response Evaluation Criteria In Solid Tumors (RECIST), version 1.0.
# AKT2 [5] = tested on: AKT2; set-up: method as in ref 4 = [4]; 4. Lu W, Defeo-Jones D, Davis L et al (2009) In vitro and in vivo antitumor activities of MK-2206, a new allosteric Akt inhibitor [abstract #3714]. In: Proceedings of the 100th annual meeting of the A; conditions: several cancer cell lines; cited from earlier work
# [6] = tested on: non-Japanese patients with advanced solid tumors; conditions: cited from earlier work
# [7] = non-Japanese patients; cited from earlier work
compound,measurement,setting,value
NC1(c2ccc(-c3nc4ccn5c(=O)[nH]nc5c4cc3-c3ccccc3)cc2)CCC1 [MK-2206],IC50,AKT1 kinase activity,~20 nM
same,anti-tumor activity,[1],showed anti-tumor activity
same,AKT pathway blockade,AKT pathway,Significant AKT pathway blockade
same,potency on AKT3 activity relative to AKT1,AKT3 [2],two to sixfold less potently
same,IC50,AKT3 [3],65 nM
same,IC50,AKT2 [4],12 nM
same,tumor responses (RECIST 1.0),advanced solid tumors; 24 patients evaluated,no tumor responses
same,patients with SD lasting longer than 4 months,advanced solid tumors; all cohorts,6 of the 24
same,"patients with SD lasting longer than 4 months, percent",advanced solid tumors; all cohorts,25%
same,patients with SD for 6 months or longer,"advanced solid tumors; one mediastinal tumor, one esophageal cancer",two patients
same,patients with stable disease (SD) for 4 months or longer,"advanced solid tumors; two cervical cancer, one leiomyosarcoma, one breast cancer",Four patients
same,potency on AKT2 activity relative to AKT1,AKT2 [5],two to sixfold less potently
same,patients who experienced a DLT,"[6]; 60 mg QOD, grade 3 skin rash",One of 20
same,"patients who experienced a DLT, percent",[6]; 60 mg QOD,5.0%
same,patients who experienced DLTs,"[6]; 200 mg QW, grade 3 skin rash (three), grade 3 dermatitis acneiform (one)",Four of 17
same,"patients who experienced DLTs, percent",[6]; 200 mg QW,23.5%
same,maximum tolerated dose (MTD),[6]; QOD dosing schedule,60 mg/day
same,maximum tolerated dose (MTD),[6]; QW dosing schedule,200 mg/day
same,apparent terminal half-life (t½),[7],60 to 90 h
same,terminal elimination half-life,[7],60 to 80 h
